Test results from US20240309016A1, “MACROCYCLIC HETEROCYCLE COMPOUNDS AND USE THEREOF” (TAKEDA PHARMACEUTICAL COMPANY LIMITED, priority 2023, published 2024).

Each compound was assayed against T1, human OX2 receptor (Homo sapiens, UniProt O43614) (assay: Measurement of orexin type 2 receptor agonist activity (Experimental Example 2; Fluo-4 AM calcium fluorescence, FDSS μCELL)). Conditions: compound at 3 μM; CHO cells expressing human OX2 receptor; DMSO = 0%, 10 nM orexin A (human) = 100%.
T1 construct: expressed in transfected cells
T1 sequence (O43614 1-444): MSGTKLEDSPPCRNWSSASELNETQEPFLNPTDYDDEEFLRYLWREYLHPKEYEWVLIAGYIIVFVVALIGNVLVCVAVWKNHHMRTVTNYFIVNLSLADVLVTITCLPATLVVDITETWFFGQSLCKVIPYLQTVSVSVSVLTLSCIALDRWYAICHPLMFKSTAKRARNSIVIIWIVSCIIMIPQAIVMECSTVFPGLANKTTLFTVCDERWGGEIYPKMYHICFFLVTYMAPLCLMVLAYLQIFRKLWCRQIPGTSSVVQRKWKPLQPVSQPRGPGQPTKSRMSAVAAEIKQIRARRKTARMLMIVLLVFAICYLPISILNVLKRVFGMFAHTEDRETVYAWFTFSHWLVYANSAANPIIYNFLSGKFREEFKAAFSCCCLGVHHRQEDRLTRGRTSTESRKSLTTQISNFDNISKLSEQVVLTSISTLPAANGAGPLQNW
Type: cell-based
Description: In order to obtain cell clones that stably express human orexin type 2 receptor, human orexin type 2 (residues 1-444, NCBI Reference Sequence: AK314279) was constructed in a pcDNA3.1 (+) vector (Invitrogen) to express in mammalian cells. This plasmid DNA was transfected into CHO-K1 cells by electroporation, and stable clones were obtained by limiting dilution using resistance to G418 as a selection marker.
CHO cells in which human OX2 receptor was forcibly expressed were seeded at 10,000 cells/well into a 384-well black transparent bottom plate (BD falcon), and were incubated at 37° C., 5% CO2 for 1 day after incubation at room temperature for 30 minutes. After removing the cell plate medium, assay buffer containing calcium indicator A (HBSS (Thermo Fisher Scientific), 20 mM HEPES (Thermo Fisher Scientific), 0.1% BSA (Sigma-Aldrich), 2.5 μg/mL Fluo-4 AM (Dojin Kagaku), 0.08% Pluronic F127 (Dojin Kagaku), 1.25 mM probenecid (Dojin Kagaku)) was added at 30 μL/well. After incubation in a 5% CO2 incubator at 37° C. for 30 minutes, it was incubated at room temperature for another 30 minutes. Add 10 μL/well of the test compound diluted with assay buffer B (HBSS, 20 mM HEPES, 0.1% BSA), and use FDSS μCELL (Hamamatsu Photonics) to measure the fluorescence value every 1 second for 1 minute, and then every 2 seconds for 1 minute. It was measured for 1 minute and 40 seconds. The amount of fluorescence value when DMSO is added instead of the test compound is defined as 0%, and the amount of fluorescence value when orexin A (human) (Peptide Institute) with a final concentration of 10 nM is added is defined as 100%. The activity (%) of the test compound was calculated. Table 2-1, 2-2, 2-3, and 2-4 show the activity of each compound at a concentration of 3 μM.

Compound	OX2R agonist activity (3 μM, %)
CS(=O)(=O)N[C@@H]1[C@@H]2Cc3cccc(c3F)Oc3nc(ccc3C3CC3)CNC(=O)N2CC1(F)F [Example 88, N-[(15aS,16R)-7-cyclopropyl-17,17,20-trifluoro-1-oxo-2,3,15a,16,17,18-hexahydro-1H,15H-4,8-(azeno)-14,10-(metheno)pyrrolo[1,2-j][1,8,10]oxadiazacyclo-heptadecin-16-yl]methanesulfonamide]	109%
CS(=O)(=O)N[C@@H]1[C@@H]2Cc3cccc(c3F)Oc3nc(ccc3Cl)OCC(=O)N2CC1(F)F [Example 62, N-[(15aS,16R)-7-chloro-17,17,20-trifluoro-1-oxo-1,2,15a,16,17,18-hexahydro-15H-4,8-(azeno)-14,10-(metheno)pyrrolo[1,2-d][1,12,4]dioxazacyclo-heptadecin-16-yl]methanesulfonamide]	102%
CCS(=O)(=O)N[C@H]1[C@@H](F)CN2C(=O)COc3ccc(Cl)c(n3)Oc3cccc(c3F)C[C@@H]12 [Example 80, N-[(15aS,16R,17S)-7-chloro-17,20-difluoro-1-oxo-1,2,15a,16,17,18-hexahydro-15H-4,8-(azeno)-14,10-(metheno)pyrrolo[1,2-d][1,12,4]dioxazacyclo-heptadecin-16-yl]ethanesulfonamide]	100%
Cc1ccc2nc1Oc1cccc(c1F)C[C@H]1[C@@H](NS(=O)(=O)C(C)C)C(F)(F)CN1C(=O)NC2 [Example 97, N-[(15aS,16R)-17,17,20-trifluoro-7-methyl-1-oxo-2,3,15a,16,17,18-hexahydro-1H,15H-4,8-(azeno)-14,10-(metheno)pyrrolo[1,2-j][1,8,10]oxadiazacyclo-heptadecin-16-yl]propane-2-sulfonamide]	108%
CCS(=O)(=O)N[C@H]1[C@@H](F)CN2C(=O)NCc3ccc(Cl)c(c3)Oc3cccc(c3F)C[C@@H]12 [Example 39, N-[(15aS,16R,17S)-7-chloro-17,20-difluoro-1-oxo-2,3,15a,16,17,18-hexahydro-1H,15H-4,8:14,10-di(metheno)pyrrolo[1,2-j][1,8,10]oxadiazacyclo-heptadecin-16-yl]ethanesulfonamide]	105%
CO[C@@H]1C[C@H]2C(=O)N3CC(F)(F)[C@H](NS(C)(=O)=O)[C@@H]3Cc3cccc(c3F)Oc3nc(ncc3C)N2C1 [Example 83, N-[(2R,16aS,17R,21aS)-18,18,22-trifluoro-2-methoxy-8-methyl-21-oxo-2,3,16a,17,18,19,21,21a-octahydro-1H,16H-5,9-(azeno)-11,15-(metheno)dipyrrolo[1,2-g:1′,2′-j][1,5,7,10]oxatriazacyclo-heptadecin-17-yl]methanesulfonamide]	96%
CS(=O)(=O)N[C@@H]1[C@@H]2Cc3cccc(c3)Oc3nc(ccc3Cl)OCC(=O)N2CC1(F)F [Example 96, N-[(15aS,16R)-7-chloro-17,17-difluoro-1-oxo-1,2,15a,16,17,18-hexahydro-15H-4,8-(azeno)-14,10-(metheno)pyrrolo[1,2-d][1,12,4]dioxazacyclo-heptadecin-16-yl]methanesulfonamide]	107%
Cc1cnc2nc1Oc1cccc(c1F)C[C@H]1[C@@H](NS(C)(=O)=O)C(F)(F)CN1C(=O)CO2 [Example 77, N-[(15aS,16R)-17,17,20-trifluoro-7-methyl-1-oxo-1,2,15a,16,17,18-hexahydro-15H-4,8-(azeno)-10,14-(metheno)pyrrolo[2,1-n][1,7,3,15]dioxadiazacyclo-heptadecin-16-yl]methanesulfonamide]	104%
CS(=O)(=O)N[C@@H]1[C@@H]2Cc3cccc(c3F)Oc3nc(cs3)CNC(=O)N2CC1(F)F [Example 85, N-[(14aS,15R)-16,16,19-trifluoro-1-oxo-2,3,14a,15,16,17-hexahydro-1H,14H-4,7-(azeno)-9,13-(metheno)pyrrolo[1,2-i][1,3,7,9]oxathiadiazacyclo-hexadecin-15-yl]methanesulfonamide]	95%
CCS(=O)(=O)N[C@H]1CCN2C(=O)NCc3nc(c(F)cc3F)Oc3cccc(c3)C[C@@H]12 [Example 20, N-[(15aS,16S)-5,7-difluoro-1-oxo-2,3,15a,16,17,18-hexahydro-1H,15H-4,8-(azeno)-14,10-(metheno)pyrrolo[1,2-j][1,8,10]oxadiazacyclo-heptadecin-16-yl]ethanesulfonamide]	105%
CCS(=O)(=O)N[C@@H]1[C@@H]2Cc3cccc(c3F)Oc3nc(ccc3C)N(C)CC(=O)N2CC1(F)F [Example 48, N-[(15aS,16R)-17,17,20-trifluoro-3,7-dimethyl-1-oxo-2,3,15a,16,17,18-hexahydro-1H,15H-4,8-(azeno)-14,10-(metheno)pyrrolo[1,2-j][1,7,10]oxadiazacyclo-heptadecin-16-yl]ethanesulfonamide]	67%
CCS(=O)(=O)N[C@@H]1[C@@H]2Cc3cccc(c3F)Oc3nc(ccc3C)C(C)NC(=O)N2CC1(F)F (stereo partly drawn) [Example 49, N-[(15aS,16R)-17,17,20-trifluoro-3,7-dimethyl-1-oxo-2,3,15a,16,17,18-hexahydro-1H,15H-4,8-(azeno)-14,10-(metheno)pyrrolo[1,2-j][1,8,10]oxadiazacyclo-heptadecin-16-yl]ethanesulfonamide (optical isomer)]	97%
CCS(=O)(=O)N[C@H]1[C@@H](F)CN2C(=O)CCc3ccc(Cl)c(n3)Oc3cccc(c3F)C[C@@H]12 [Example 82, N-[(1R,2S,19aS)-11-chloro-2,20-difluoro-5-oxo-2,3,6,7,19,19a-hexahydro-1H,5H-12,8-(azeno)-14,18-(metheno)pyrrolo[2,1-h][1,9]oxazacycloheptadecin-1-yl]ethanesulfonamide]	101%
CS(=O)(=O)N[C@@H]1[C@@H]2Cc3ccc(F)c(c3)Oc3nc(ccc3Cl)OCC(=O)N2CC1(F)F (relative stereo) [Example 95, N-[rel-(15aS,16R)-7-chloro-11,17,17-trifluoro-1-oxo-1,2,15a,16,17,18-hexahydro-15H-4,8-(azeno)-14,10-(metheno)pyrrolo[1,2-d][1,12,4]dioxazacyclo-heptadecin-16-yl]methanesulfonamide (optical isomer)]	103%
Cc1ccc2nc1Oc1cccc(c1F)C[C@H]1[C@@H](NS(=O)(=O)N(C)C)C(F)(F)CN1C(=O)NC2 [Example 11, N,N-dimethyl-N′-[(15aS,16R)-17,17,20-trifluoro-7-methyl-1-oxo-2,3,15a,16,17,18-hexahydro-1H,15H-4,8-(azeno)-14,10-(metheno)pyrrolo[1,2-j][1,8,10]oxadiazacyclo-heptadecin-16-yl]sulfuric diamide]	98%
Cc1ccc2nc1Oc1cc(ccc1F)C[C@H]1[C@@H](NS(C)(=O)=O)C(F)(F)CN1C(=O)NC2 (relative stereo) [Example 86, N-[rel-(15aS,16R)-11,17,17-trifluoro-7-methyl-1-oxo-2,3,15a,16,17,18-hexahydro-1H,15H-4,8-(azeno)-14,10-(metheno)pyrrolo[1,2-j][1,8,10]oxadiazacyclo-heptadecin-16-yl]methanesulfonamide (optical isomer)]	102%
CCS(=O)(=O)N[C@@H]1[C@@H]2Cc3cc(ccc3F)Oc3nc(ccc3C)CNC(=O)N2CC1(F)F (relative stereo) [Example 90, N-[rel-(15aS,16R)-13,17,17-trifluoro-7-methyl-1-oxo-2,3,15a,16,17,18-hexahydro-1H,15H-4,8-(azeno)-14,10-(metheno)pyrrolo[1,2-j][1,8,10]oxadiazacyclohepta-decin-16-yl]ethanesulfonamide (optical isomer)]	108%
CCS(=O)(=O)N[C@@H]1[C@@H]2Cc3cccc(c3F)Oc3nc(c(F)cc3C)CNC(=O)N2CC1(F)F [Example 32, N-[(15aS,16R)-5,17,17,20-tetrafluoro-7-methyl-1-oxo-2,3,15a,16,17,18-hexahydro-1H,15H-4,8-(azeno)-14,10-(metheno)pyrrolo[1,2-j][1,8,10]oxadiazacyclo-heptadecin-16-yl]ethanesulfonamide]	101%
